Assays:
[1] = test system: HepG2 cells; conditions: HepG2 cells; downloaded from ChEMBL ref F.J. Gamo et al., Nature 2010; cited from earlier work
[2] = test system: DD2; set-up: method as in F.J. Gamo et al., Nature 2010; conditions: P. falciparum Dd2; downloaded from ChEMBL ref F.J. Gamo et al., Nature 2010; cited from earlier work
[3] = target: T1, Plasmodium falciparum calcium-dependent protein kinase 1 (CDPK1) (Plasmodium falciparum, UniProt P62344); test: CDPK1 Kinase-Glo ATP-consumption screen and dose-response; assay type: biochemical; conditions: hits below 1 uM; read-out: CDPK1 IC50
T1 construct: 6-Histidine (N); made in house
Procedure: Biochemical assays were performed in white 384-well plates (Nunc). Liquid transfers were done manually with 8-channel pipets. Compounds were initially tested in a single-point screen (final concentration 1 μM). […] The catalytic activity of each kinase was considered proportional to ATP consumed, as determined from measurements of residual [ATP] with the luciferase-based reagent Kinase-Glo (Promega) following incubation. Luminescence (proportional to residual [ATP]) was measured on the plate readers FLx800 (BioTek Instruments, Winooski, VT, USA) and MicroBeta^2 (PerkinElmer, Waltham, MA, USA). Incubation times were chosen to ensure near-complete ATP depletion in the absence of inhibition, thus maximizing the difference in signal between inhibited and uninhibited wells.
40 μM Syntide-2 was used as a substrate; BKI-1 [14] was used as a control inhibitor, while reaction mixtures lacking Syntide-2 were included as an additional negative control. Incubation time was 90 minutes. Reactions were terminated by adding excess EGTA (5 mM), which sequesters Ca^2+ and halts calcium-dependent kinase activity.

[4] = test system: P. falciparum 3D7 cells; conditions: P. falciparum 3D7; downloaded from ChEMBL ref F.J. Gamo et al., Nature 2010; cited from earlier work
[5] = test system: 3D7 PFLDH; set-up: method as in F.J. Gamo et al., Nature 2010; conditions: downloaded from ChEMBL ref F.J. Gamo et al., Nature 2010; cited from earlier work

T1 sequence (P62344 whole entry): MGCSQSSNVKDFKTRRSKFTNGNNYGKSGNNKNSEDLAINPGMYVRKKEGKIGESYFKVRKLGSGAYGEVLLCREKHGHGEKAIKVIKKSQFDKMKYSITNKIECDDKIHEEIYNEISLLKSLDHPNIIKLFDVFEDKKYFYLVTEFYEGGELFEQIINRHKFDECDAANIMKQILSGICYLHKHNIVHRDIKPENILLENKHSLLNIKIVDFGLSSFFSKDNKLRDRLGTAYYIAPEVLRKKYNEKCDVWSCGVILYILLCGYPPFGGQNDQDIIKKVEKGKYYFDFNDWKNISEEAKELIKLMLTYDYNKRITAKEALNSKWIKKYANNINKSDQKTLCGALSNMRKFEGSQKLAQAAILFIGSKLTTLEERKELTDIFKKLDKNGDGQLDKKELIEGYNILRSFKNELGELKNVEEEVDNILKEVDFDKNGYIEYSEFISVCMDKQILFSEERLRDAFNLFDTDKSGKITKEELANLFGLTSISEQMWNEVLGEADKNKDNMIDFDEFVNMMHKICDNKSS

SMILES | PCT_INHIB_HEPG2 [1] | PCT_INHB_DD2 [2] | IC50 [3] [nM] | PCT_IHB_3D7 [4] | pXC50_3D7 [4] | PCT_INHIB_3D7_PFLDH [5]
CC(C)(CNC(=O)C1CCN(CCOc2ccc(Cl)cc2)CC1)c1nc(-c2ccc(Cl)c(O)c2)c(-c2ccncc2)[nH]1.Cl [TCMDC-141124] | 40 | 5 | 471 | 100 | 6.149 | 7
CN1CCC=C(C(=O)NCC(C)(C)c2nc(-c3ccc(Cl)c(O)c3)c(-c3ccncc3)[nH]2)C1.Cl [TCMDC-140700] | 39 | 96 | 213 | 96 | 6 | 0
CC(C)(CNC(=O)[C@@H]1CCCCN1)c1nc(-c2ccc(Cl)c(O)c2)c(-c2ccncc2)[nH]1.Cl [TCMDC-141079] | 0 | 96 | 192 | 97 | 6.075 | 0
CC(C)(CNC(=O)[C@H]1CCCCN1)c1nc(-c2ccc(Cl)c(O)c2)c(-c2ccncc2)[nH]1.Cl [TCMDC-141070] | 6 | 98 | 164 | 98 | 6.139 | 0
CN(C)CCOc1ccc(-c2cc(-c3ccc(Cl)c(O)c3)c(-c3ccnc(N)n3)o2)cc1 [TCMDC-141332] | 43 | 95 | 168 | 100 | 5.879 | 2
CC(C)(CNCCOc1ccc(Cl)cc1)c1nc(-c2ccnc(N)n2)c(-c2ccc(Cl)c(O)c2)[nH]1.Cl [TCMDC-141161] | 45 | 19 | 755 | 97 | 6.079 | 0
CC(C)(CNCc1ccc(OC(F)(F)F)cc1)c1nc(-c2ccc(Cl)c(O)c2)c(-c2ccncc2)[nH]1.Cl [TCMDC-140708] | 38 | 99 | 438 | 100 | 6.263 | 0
Cl.Oc1cc(-c2nc(C3(CNCc4ccc(Cl)cc4)CCCCC3)[nH]c2-c2ccncc2)ccc1Cl [TCMDC-141155] | 35 | 99 | 846 | 100 | 6.903 | 2
COc1ccc(CNCC(C)(C)c2nc(-c3ccc(Cl)c(O)c3)c(-c3ccncc3)[nH]2)cc1.Cl [TCMDC-140538] | 76 | 99 | 186 | 100 | 6.447 | 1
CC(C)(CNC(=O)C1CCN(CCOCc2ccccc2)CC1)c1nc(-c2ccc(Cl)c(O)c2)c(-c2ccncc2)[nH]1.Cl [TCMDC-141122] | 11 | 18 | 734 | 100 | 6.208 | 0
Nc1ncc(-c2cn[nH]c2)cc1-c1nc2cc(Cl)cnc2[nH]1 [TCMDC-133562] | 40 | 70 | 280 | 100 | 6.039 | 1
CC(C)(CNCc1ccc(Cl)cc1)c1nc(-c2ccc(Cl)c(O)c2)c(-c2ccncc2)[nH]1.Cl [TCMDC-140548] | 86 | 98 | 257 | 100 | 6.322 | 5
CC(C)(CNCc1ccccc1)c1nc(-c2ccc(Cl)c(O)c2)c(-c2ccncc2)[nH]1.Cl [TCMDC-140389] | 77 | 99 | 190 | 100 | 6.27 | 0
